From patent US10954252B1, “Inhibitors of human immunodeficiency virus replication” (ViiV HEALTHCARE UK (NO.5) LIMITED, priority 2017, dated 2021) come the findings set out here.

Broadly, the CC50 is the concentration that lowers cell viability or growth by half. In general, EC50 refers to the concentration needed to bring the measured effect to its halfway point.

Series [1] can be described thus: Compound cytotoxicity, XTT-based colorimetric assay. To be noted: human, uninfected MT2 cells, Table 1, day 4, XTT. In kind it is cell-based. In outline:
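CC50 from uninfected MT2 cells run under the antiviral-assay protocol without virus. Viability read on day 4 by XTT colorimetric assay.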
On the technique in general: Tetrazolium assays rely on reduction of a dye to a coloured formazan, in cell work by metabolically active cells.

For series [2], the system named is recombinant NL4-3 virus (nef section replaced with Renilla luciferase gene) in MT-2 cells. Nature of the series: HIV cell culture assay (antiviral activity, luciferase readout). In kind it is cell-based. To be noted: MT-2 cells infected for 4-5 days with recombinant NL4-3 luciferase virus. An outline of the steps: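 NL4-3 reporter virus carrying Renilla luciferase in place of part of nef, produced in 293T cells, was used to infect MT-2 cells for 4-5 days with serial compound dilutions. Luciferase activity was read with a live-cell substrate; EC50 derived from the median effect equation.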

`Cc1nc2nc(C(Cc3cc(F)cc(F)c3)NC(=O)Cn3nc(C(F)F)c4c3C(F)(F)[C@@H]3C[C@H]43)c(-c3ccc(Cl)c4c(NS(C)(=O)=O)nn(C)c34)cc2s1` (single isomer, unassigned) [Example 2.1]: the half-maximal cytotoxic concentration (CC50) at 4 days in series [1] was more than 10000 nM. For the same compound, the EC50 in series [2] (Table 1) is 0.1 nM.

Regarding `Cc1nc2nc(C(Cc3cc(F)cc(F)c3)NC(=O)Cn3nc(C(F)F)c4c3CCC4)c(-c3ccc(Cl)c4c(NS(C)(=O)=O)nn(C)c34)cc2s1` (single isomer, unassigned) [Example 2.3, N-(1-(6-(4-chloro-1-methyl-3-(methylsulfonamido)-1H-indazol-7-yl)-2-methylthiazolo[4,5-b]pyridin-5-yl)-2-(3,5-difluorophenyl)ethyl)-2-(3-(difluoromethyl)-5,6-dihydrocyclopenta[c]pyrazol-1(4H)-yl)acetamide], in series [1], the CC50 at 4 days was more than 10000 nM. The EC50 in series [2] (Table 1) was 0.1 nM.

Compound `O=C(Cc1c[nH]c2ccc(O)cc12)NC(Cc1cc(F)cc(F)c1)c1nc2cn[nH]c2cc1-c1ccc2scnc2c1` (single isomer, unassigned) [Example 3.3, N-(1-(6-(benzo[d]thiazol-5-yl)-1H-pyrazolo[4,3-b]pyridin-5-yl)-2-(3,5-difluorophenyl)ethyl)-2-(5-hydroxy-1H-indol-3-yl)acetamide] yielded a 50% cytotoxic concentration (CC50) at 4 days in series [1] of 42400 nM. Further, the 50% effective concentration (EC50) in series [2] (Table 1) was found to be 5.7 nM.

With `O=C(Cc1c[nH]c2ccc(F)cc12)NC(Cc1cc(F)cc(F)c1)c1nc2cn[nH]c2cc1-c1ccc2scnc2c1` (single isomer, unassigned) [Example 3.5, N-(1-(6-(benzo[d]thiazol-5-yl)-1H-pyrazolo[4,3-b]pyridin-5-yl)-2-(3,5-difluorophenyl)ethyl)-2-(5-fluoro-1H-indol-3-yl)acetamide], in series [1], the CC50 at 4 days is 32100 nM. For the same compound, the concentration for a half-maximal effect (EC50) in series [2] (Table 1) is 20 nM.

In series [1], `CC(C)c1ccc(-c2cc3[nH]ncc3nc2C(Cc2cc(F)cc(F)c2)NC(=O)Cn2nc(C(F)F)c3c2C(F)(F)[C@@H]2C[C@H]32)cn1` (single isomer, unassigned) [Example 3.9] gave a CC50 at 4 days of 9600 nM. Besides, the concentration giving a half-maximal response (EC50) in series [2] (Renilla, NL43, Table 1) was 9.9 nM.

`O=C(Cn1nc(C(F)F)c2c1C(F)(F)[C@@H]1C[C@H]21)NC(Cc1cc(F)cc(F)c1)c1nc2cn[nH]c2cc1-c1ccc(OC(F)F)cc1` (single isomer, unassigned) [Example 3.10] yielded a CC50 at 4 days in series [1] of 6800 nM. Moreover, the 50% effective concentration (EC50) in series [2] (Renilla, NL43, Table 1) was 320 nM.

For the compound `O=C(Cn1nc(C(F)F)c2c1C(F)(F)[C@@H]1C[C@H]21)NC(Cc1cc(F)cc(F)c1)c1nc2cn[nH]c2cc1-c1ccc(C2CC2)cc1` (single isomer, unassigned) [Example 3.11], the half-maximal cytotoxic concentration (CC50) at 4 days in series [1] is 4200 nM. Also, the EC50 in series [2] (Renilla, NL43, Table 1) was determined as 670 nM.

Turning to `Cn1nc(NS(C)(=O)=O)c2c(Cl)ccc(-c3cc4[nH]cnc4nc3C(Cc3cc(F)cc(F)c3)NC(=O)Cn3nc(C(F)F)c4c3C(F)(F)[C@@H]3C[C@H]43)c21` (single isomer, unassigned) [Example 4.1], the CC50 at 4 days in series [1] is more than 10000 nM. Further, in series [2] (Table 1), the half-maximal effective concentration (EC50) was determined as 230 nM.

As for `Cn1nc(NS(C)(=O)=O)c2c(Cl)ccc(-c3cc4[nH]ccc4nc3C(Cc3cc(F)cc(F)c3)NC(=O)Cn3nc(C(F)F)c4c3C(F)(F)[C@@H]3C[C@H]43)c21` (single isomer, unassigned) [Example 5.1], the CC50 at 4 days in series [1] is more than 10000 nM. In addition, in series [2] (Table 1), the concentration giving a half-maximal response (EC50) was determined as 220 nM.

The compound `Cn1nc(NS(C)(=O)=O)c2c(Cl)ccc(-c3cc4cn[nH]c4nc3C(Cc3cc(F)cc(F)c3)NC(=O)Cn3nc(C(F)F)c4c3C(F)(F)[C@@H]3C[C@H]43)c21` (single isomer, unassigned) [Example 6.1] returned a CC50 at 4 days in series [1] of more than 10000 nM. Besides, the EC50 in series [2] (Table 1) came out at 1020 nM.

As to `O=C(Cn1nc(C(F)F)c2c1C(F)(F)[C@@H]1C[C@H]21)NC(Cc1cc(F)cc(F)c1)c1ncc2nc[nH]c2c1-c1ccc2scnc2c1` (single isomer, unassigned) [Example 7.1], the CC50 at 4 days in series [1] amounted to 16200 nM. In addition, the half-maximal effective concentration (EC50) in series [2] (Table 1) was 140 nM.

Consider `Cn1nc(NS(C)(=O)=O)c2c(Cl)ccc(-c3c(C(Cc4cc(F)cc(F)c4)NC(=O)Cn4nc(C(F)F)c5c4C(F)(F)[C@@H]4C[C@H]54)ncc4[nH]cnc34)c21` (single isomer, unassigned) [Example 7.3], for which, in series [1], the CC50 at 4 days was more than 10000 nM. In addition, the concentration for a half-maximal effect (EC50) in series [2] (Table 1) was found to be 10000 nM.

As to `Cn1nc(NS(C)(=O)=O)c2c(Cl)ccc(-c3cc4ccccc4nc3C(Cc3cc(F)cc(F)c3)NC(=O)Cn3nc(C(F)F)c4c3C(F)(F)[C@@H]3C[C@H]43)c21` (single isomer, unassigned) [Example 8.1], the CC50 at 4 days in series [1] is more than 10000 nM. For the same compound, the EC50 in series [2] (Table 1) worked out at 0.2 nM.

Compound `Cn1nc(NS(C)(=O)=O)c2c(Cl)ccc(-n3c([C@H](Cc4cc(F)cc(F)c4)NC(=O)Cn4nc(C(F)F)c5c4C(F)(F)[C@@H]4C[C@H]54)nc4ncccc4c3=O)c21` (single isomer, unassigned) [Example 10.39] had a half-maximal cytotoxic concentration (CC50) at 4 days in series [1] of more than 10000 nM. Moreover, in series [2] (Table 1), the EC50 is 6.98 nM.

`CS(=O)(=O)Nc1nn(CC(F)F)c2c(-n3c([C@H](Cc4cc(F)cc(F)c4)NC(=O)Cn4nc(C(F)F)c5c4C(F)(F)C4CC54)nc4ncccc4c3=O)ccc(Cl)c12` (single isomer, unassigned) [Example 14.1] returned a CC50 at 4 days in series [1] of more than 10000 nM. Besides, the concentration giving a half-maximal response (EC50) in series [2] (Renilla, NL43, Table 1) worked out at 49 nM.

In turn, `Cn1nc(NS(C)(=O)=O)c2c(Cl)ccc(-n3c([C@H](Cc4cc(F)cc(F)c4)NC(=O)Cn4nc(C(F)F)c5c4C(F)(F)[C@@H]4C[C@H]54)nc4ccccc4c3=O)c21` (single isomer, unassigned) [Example 16] yielded a CC50 at 4 days in series [1] of more than 10000 nM. In addition, in series [2] (Renilla, NL43, Table 1), the EC50 is 49 nM.

Regarding `COc1ccc2c(=O)n(-c3ccc(Cl)c4c(NS(C)(=O)=O)nn(C)c34)c([C@H](Cc3cc(F)cc(F)c3)NC(=O)Cn3nc(C(F)F)c4c3C(F)(F)[C@@H]3C[C@H]43)nc2c1` (single isomer, unassigned) [Example 17], the 50% cytotoxic concentration (CC50) at 4 days in series [1] was more than 10000 nM. Besides, the 50% effective concentration (EC50) in series [2] (Renilla, NL43, Table 1) is 61 nM.

Regarding `Cn1nc(NS(C)(=O)=O)c2c(Cl)ccc(-n3c([C@H](Cc4cc(F)cc(F)c4)NC(=O)Cn4nc(C(F)F)c5c4C(F)(F)[C@@H]4C[C@H]54)nc4cccc(F)c4c3=O)c21` (single isomer, unassigned) [Example 19], the CC50 at 4 days in series [1] was more than 8000 nM. The EC50 in series [2] (Renilla, NL43, Table 1) was found to be 130 nM.

Take `Cn1nc(NS(C)(=O)=O)c2c(Cl)ccc(-n3c([C@H](Cc4cc(F)cc(F)c4)NC(=O)Cn4nc(C(F)F)c5c4C(F)(F)[C@@H]4C[C@H]54)nc4cc(C#N)ccc4c3=O)c21` (single isomer, unassigned) [Example 20]: the CC50 at 4 days in series [1] was more than 10000 nM. The 50% effective concentration (EC50) in series [2] (Renilla, NL43, Table 1) came to 24 nM.

In the case of `Cn1nc(NS(C)(=O)=O)c2c(Cl)ccc(-n3c([C@H](Cc4cc(F)cc(F)c4)NC(=O)Cn4nc(C(F)F)c5c4C(F)(F)[C@@H]4C[C@H]54)nc4ccc(F)cc4c3=O)c21` (single isomer, unassigned) [Example 21], in series [1], the CC50 at 4 days was more than 2700 nM. Moreover, the EC50 in series [2] (Renilla, NL43, Table 1) came out at 45 nM.

In turn, `Cn1nc(NS(C)(=O)=O)c2c(Cl)ccc(-n3c([C@H](Cc4cc(F)cc(F)c4)NC(=O)Cn4nc(C(F)F)c5c4C(F)(F)[C@@H]4C[C@H]54)nc4cccc(Cl)c4c3=O)c21` (single isomer, unassigned) [Example 22.2] showed a half-maximal cytotoxic concentration (CC50) at 4 days in series [1] of more than 1000 nM. In series [2] (Renilla, NL43, Table 1), the EC50 stood at 130 nM.
